# Reference: publication PMC11968843, “Sulphostin-inspired N-phosphonopiperidones as selective covalent DPP8 and DPP9 inhibitors” (Nature Communications, 2025)
# Where “and” joins values, the source holds several entries; their conditions need not be identical. Equal entries are not always repeated.
# Columns and labels:
# [1] = target: T1, PREP (Homo sapiens, UniProt P48147); test: PREP biochemical inhibition assay (GP-AMC substrate, IC50); conditions: for IC50: GP-AMC 2 mM, 10 nM enzyme, 45 min pre-incubation at 30 °C; for PREP activity: individual replicates
# T1 construct: purchased Sigma Aldrich, USA
# T1 sequence (P48147 1-710): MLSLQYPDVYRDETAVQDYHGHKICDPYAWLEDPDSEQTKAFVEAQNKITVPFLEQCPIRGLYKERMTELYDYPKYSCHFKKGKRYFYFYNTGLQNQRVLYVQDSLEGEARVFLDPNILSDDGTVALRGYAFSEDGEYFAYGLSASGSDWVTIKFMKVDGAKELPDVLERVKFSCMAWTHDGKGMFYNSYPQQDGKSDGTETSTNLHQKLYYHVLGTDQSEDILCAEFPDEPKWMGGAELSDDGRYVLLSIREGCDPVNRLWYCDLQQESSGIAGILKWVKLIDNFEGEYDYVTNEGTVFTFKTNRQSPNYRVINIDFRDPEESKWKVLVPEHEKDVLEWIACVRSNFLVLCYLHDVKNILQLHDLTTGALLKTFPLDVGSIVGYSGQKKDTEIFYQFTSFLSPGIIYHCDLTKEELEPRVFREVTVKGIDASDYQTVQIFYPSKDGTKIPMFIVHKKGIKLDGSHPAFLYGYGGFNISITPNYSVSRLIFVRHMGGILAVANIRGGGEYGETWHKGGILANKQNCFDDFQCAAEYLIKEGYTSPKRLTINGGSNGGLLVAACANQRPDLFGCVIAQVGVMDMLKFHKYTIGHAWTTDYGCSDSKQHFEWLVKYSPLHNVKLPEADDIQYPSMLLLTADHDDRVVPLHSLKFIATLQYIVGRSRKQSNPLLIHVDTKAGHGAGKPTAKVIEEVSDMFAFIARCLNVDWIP
# Description: Enzyme activity of DPP4, DPP8, DPP9 (Proteros Biostructures GmbH, Germany) and PREP (Sigma Aldrich, USA) was determined by measuring the initial velocity of AMC release from the fluorogenic substrate GP-AMC (Sigma Aldrich, USA) using a Tecan Spark® 10 M multimode microplate reader (Tecan Group Ltd., Switzerland) in activity buffer (20 mM HEPES/KOH pH 7.3, 110 mM potassium acetate, 2 mM Mg acetate, 0.5 mM EGTA, 0.02% Tween 20, supplemented with 1 mM DTT) and a final volume of 20 μL for maximal 60 min at 30 °C. Prior to activity measurement, 10 nM enzyme was incubated for 45 min at 30 °C and gentle shaking with the inhibitor compounds in concentrations ranging from 0 to 100 μM. The compounds were dissolved in DMSO and diluted in activity buffer (final DMSO concentration: 1%). […]. IC50 values were calculated using Graph-Pad Prism v10.2.3 using the equation: [Inhibitor] vs. response—Variable slope (four parameters). All measurements were performed in triplicates and error bars represent standard errors of the fit.
# [2] = target: T2, HEK293 cell lysates (proteome-wide targets of probe 9) (Homo sapiens, UniProt P05387); test: Competitive ABPP / direct target identification with alkyne probe 9 in HEK293 cell lysates; format: binding, H. sapiens; conditions: protein RPLP2
# T2 construct: endogenous in cells; host or cells: HEK293 cell lysate
# [3] = target: T3, HEK293 cell lysates (proteome-wide targets of probe 9) (Homo sapiens, UniProt P07737); test: as above; format: binding, H. sapiens; conditions: protein PFN1
# T3 construct: endogenous in cells; host or cells: HEK293 cell lysate
# [4] = target: T4, HEK293 cell lysates (proteome-wide targets of probe 9) (Homo sapiens, UniProt P08865); test: as above; format: binding, H. sapiens; conditions: protein RPSA
# T4 construct: endogenous in cells; host or cells: HEK293 cell lysate
# [5] = target: T5, HEK293 cell lysates (proteome-wide targets of probe 9) (Homo sapiens, UniProt P09651); test: as above; format: binding, H. sapiens; conditions: protein HNRNPA1
# T5 construct: endogenous in cells; host or cells: HEK293 cell lysate
# [6] = target: T6, HEK293 cell lysates (proteome-wide targets of probe 9) (Homo sapiens, UniProt P10599); test: as above; format: binding, H. sapiens; conditions: protein TXN
# T6 construct: endogenous in cells; host or cells: HEK293 cell lysate
# [7] = target: T7, HEK293 cell lysates (proteome-wide targets of probe 9) (Homo sapiens, UniProt P14174); test: as above; format: binding, H. sapiens; conditions: protein MIF
# T7 construct: endogenous in cells; host or cells: HEK293 cell lysate
# [8] = target: T8, HEK293 cell lysates (proteome-wide targets of probe 9) (Homo sapiens, UniProt P14923); test: as above; format: binding, H. sapiens; conditions: protein JUP
# T8 construct: endogenous in cells; host or cells: HEK293 cell lysate
# [9] = target: T9, HEK293 cell lysates (proteome-wide targets of probe 9) (Homo sapiens, UniProt P22626); test: as above; format: binding, H. sapiens; conditions: protein HNRNPA2B1;HNRPA2B1
# T9 construct: endogenous in cells; host or cells: HEK293 cell lysate
# [10] = target: T10, HEK293 cell lysates (proteome-wide targets of probe 9) (Homo sapiens, UniProt P53396); test: as above; format: binding, H. sapiens; conditions: protein ACLY
# T10 construct: endogenous in cells; host or cells: HEK293 cell lysate
# [11] = target: T11, HEK293 cell lysates (proteome-wide targets of probe 9) (Homo sapiens, UniProt P55060); test: as above; format: binding, H. sapiens; conditions: protein CSE1L
# T11 construct: endogenous in cells; host or cells: HEK293 cell lysate
# [12] = target: T12, HEK293 cell lysates (proteome-wide targets of probe 9) (Homo sapiens, UniProt P81605); test: as above; format: binding, H. sapiens; conditions: protein DCD
# T12 construct: endogenous in cells; host or cells: HEK293 cell lysate
# [13] = target: T13, HEK293 cell lysates (proteome-wide targets of probe 9) (Homo sapiens, UniProt Q00839); test: as above; format: binding, H. sapiens; conditions: protein HNRNPU
# T13 construct: endogenous in cells; host or cells: HEK293 cell lysate
# [14] = target: T14, HEK293 cell lysates (proteome-wide targets of probe 9) (Homo sapiens, UniProt Q14697); test: as above; format: binding, H. sapiens; conditions: protein GANAB
# T14 construct: endogenous in cells; host or cells: HEK293 cell lysate
# [15] = target: T15, HEK293 cell lysates (proteome-wide targets of probe 9) (Homo sapiens, UniProt Q86TI2); test: as above; format: binding, H. sapiens; conditions: protein DPP9 (Dipeptidyl peptidase 9)
# T15 construct: endogenous in cells; host or cells: HEK293 cell lysate
smiles,measurement,setting,value
C#CCCCP(=O)(OCC)N1CCCC(N)C1=O.O=C(O)C(F)(F)F (mixture of isomers) [Compound 9],IC50,[1],13.4 µM
same,PREP activity,[1]; c 1562.5 nM,90.6956% and 100.18% and 91.6611%
same,PREP activity,[1]; c 3125 nM,81.4016% and 83.8359% and 86.7341%
same,PREP activity,[1]; c 6250 nM,70.1184% and 68.121% and 70.2915%
same,PREP activity,[1]; c 25000 nM,42.6998% and 39.4794% and 39.8185%
same,PREP activity,[1]; c 50000 nM,17.1276% and 17.8294% and 21.3954%
same,PREP activity,[1]; c 100000 nM,12.8608% and 13.0915% and 11.6555%
same,Log2-fold change (9/DMSO),[2],0.606
same,Log2-fold change (9/DMSO),[3],0.6639
same,Log2-fold change (9/DMSO),[4],1.5735
same,Log2-fold change (9/DMSO),[5],0.5741
same,Log2-fold change (9/DMSO),[6],1.146
same,Log2-fold change (9/DMSO),[7],2.233
same,Log2-fold change (9/DMSO),[8],0.133
same,Log2-fold change (9/DMSO),[9],-0.2704
same,Log2-fold change (9/DMSO),[10],0.4032
same,Log2-fold change (9/DMSO),[11],0.5768
same,Log2-fold change (9/DMSO),[12],-2.5876
same,Log2-fold change (9/DMSO),[13],-0.419
same,Log2-fold change (9/DMSO),[14],0.2816
same,Log2-fold change (9/DMSO),[15],5.502
CCCCCc1ccc(SCCP(=O)(OCC)N2CCC[C@H](N)C2=O)cc1.O=C(O)C(F)(F)F (stereo partly shown) [Compound 16],IC50,[1],> 50 µM
same,PREP activity,[1]; c 1562.5 nM,98.7862% and 85.8025% and 104.946%
same,PREP activity,[1]; c 3125 nM,105.742% and 108.717% and 107.921%
same,PREP activity,[1]; c 6250 nM,96.1256% and 97.1517% and 97.4675%
same,PREP activity,[1]; c 25000 nM,92.3447% and 104.519% and 98.6461%
same,PREP activity,[1]; c 50000 nM,66.9978% and 69.9305% and 64.8732%
same,PREP activity,[1]; c 100000 nM,38.3396% and 47.6921% and 43.692%
same,activity against PREP,[1]; within the nanomolar and low micromolar range (< 50 µM),no activity against PREP
same,Log2-fold change (16/9),[2],-0.0326
same,Log2-fold change (16/9),[3],-2.001
same,Log2-fold change (16/9),[4],-2.215
same,Log2-fold change (16/9),[5],-1.553
same,Log2-fold change (16/9),[6],-0.6696
same,Log2-fold change (16/9),[7],-0.05345
same,Log2-fold change (16/9),[8],-0.03524
same,Log2-fold change (16/9),[9],-0.7288
same,Log2-fold change (16/9),[10],-0.4196
same,Log2-fold change (16/9),[11],0.04384
same,Log2-fold change (16/9),[12],2.05
same,Log2-fold change (16/9),[13],-1.015
same,Log2-fold change (16/9),[14],0.1876
same,Log2-fold change (16/9),[15],-5.229
